# Earlier results, collected in patent US20220265733A1, “COMPOSITIONS COMPRISING BACTERIAL STRAINS” (4D Pharma Research Limited, priority 2019, published 2022).
# Experiments:
# DSS-colitis murine model = conditions: reference [70]
# class I HDAC = conditions: reference [70]
structure (smiles),measurement,setting,value
CCCC(CCC)C(=O)O [valproic acid],colitis,DSS-colitis murine model,amelioration
same,HDAC inhibition,class I HDAC,associated with class I HDAC inhibition
